Measurements from paper PMC10067956, “Pyrazole derivatives of pyridine and naphthyridine as proapoptotic agents in cervical and breast cancer cells” (Scientific Reports, 2023).
Read-outs that look alike come from different tables or passages of the source.

How the values were obtained:
HeLa cells [1] = assay: MTT cell viability assay, HeLa; type: cell-based; details: 24 h; for inhibition at 100 µM: read-out: %Inhibition at 100 µM, HeLa cell line; for IC50: read-out: IC50 (µM) ± SEM, HeLa Cell Line
Method: (§1) The anti-proliferative activity of the studied compounds was determined against breast (MCF-7) and cervical (HeLa) cancer cells by the MTT cell viability assay as described earlier[44],[45]. BHK-21 cells were used as non-cancerous cells to study the effect of these compounds on normal cells. Briefly, 1 × 10^4 cells/well were seeded in 96-well microtiter plate and placed in an incubator (Heracell™ VIOS 160i, Thermo-Fisher Scientific) set for 5% CO2 at 37 °C. The stock solutions of compounds were prepared at 10 mM concentration in DMSO. Initial working solutions were prepared in cell culture medium at 1 mM concentration. […] After 24 h, medium in each well was aspirated and cells were treated for 4 h with serum free medium containing 0.2 mg/mL MTT reagent. The solubilizing reagent (10% acidified sodium dodecyl sulfate in propanol in a 1:1 ratio) was added to solubilize formazan crystals. Plates were kept at 37 °C for 30 min and then placed on a gyratory shaker for few min for complete solubilization of formazan crystals. The optical density was measured at 570 nm by microplate reader and IC50 values were calculated from three independent experiments as previously reported.

MCF-7 cells = assay: MTT cell viability assay, MCF-7; type: cell-based; details: for inhibition at 100 µM: MCF7, 100 µM, read-out: %Inhibition at 100 µM, MCF-7 cell line; for IC50: read-out: IC50 (µM) ± SEM, MCF-7 cell line
Method: as §1

BHK-21 cells = assay: MTT cell viability assay, non-cancerous BHK-21; type: cell-based, Baby Hamster; details: 24 h, read-out: IC50 (µM) ± SEM, BHK-21 cell line
Method: as §1

HeLa cells [2] = assay: Alkaline comet assay; type: cell-based; details: 5j 6.4 µM 24 h
Method: Comet assay is a sensitive method to determine DNA damage which was performed after some modifications in a published protocol. […] The cervical cancer (HeLa) cells were treated with IC50 value of potent compound 5j for 24 h. Cells were harvested, collected and centrifuged to obtain a pellet. Pelleted cells were re-suspended in media. Untreated cells were used as control cells. For the positive control, 2 × 10^4 cells were treated with 20 µM of freshly prepared hydrogen peroxide for 30 min. Slides were prepared by coating with 1% normal melting point agarose (NMPA) on one side and then dried. Samples (2 × 10^4 cells/sample) were re-suspended in 1 mL of PBS. In a tube, 0.4 mL cell suspension was mixed with 1.2 mL of 0.9% low melting point agarose (LMPA) and mixed thoroughly by pipetting. A cell suspension of 65 µL was laid on coated slide and evenly distributed by placing a coverslip over it. Slides were placed at − 20 °C for 10 min. Then the slides were placed at 4 °C in the dark in a lysis buffer of 100 mM EDTA, 10 mM Trizma base, 2.5 M sodium chloride, 10% DMSO and 1% Triton X-100 in distilled water with a pH of 10. After an overnight incubation, slides were washed with chilled distilled water. These slides were then placed in electrophoresis chamber (Wealtec, USA) having chilled (4 °C) alkali unwinding solution (300 mM sodium hydroxide and 1 mM EDTA in distilled water). Electrophoresis was carried out at an adjusted voltage (between 0.7 and 1.0 V/cm) for 35 min in an electrophoresis tank. Slides were then immersed in neutralization solution (0.4 M Trizma base in 800 mL water, pH 7.5) for 10 min in dark. Propidium iodide (20 µL of 0.01 mg/mL) was used as fluorescent dye to stain DNA. Slides were placed in dark at room temperature. After 10 min, images were captured using a fluorescence microscope (Nikon ECLIPSE Ni–U, Japan) at an excitation/emission wavelength of 493/632 nm. Microscopic images were analyzed using ImageJ (ij152-win-java8, National Institutes of Health, Bethesda, USA) and OpenComet (OpenComet_imagej_v1.3.1, USA) where the DNA content in the head and tail of the comets were automatically measured by the software. Results of three independent experiments were expressed as tail length ([…]), %DNA in comet tail and comet tail moment.

Row | Structure (SMILES) | inhibition at 100 µM (HeLa cells [1]; Homo sapiens) | IC50 (HeLa cells [1]; Homo sapiens) | inhibition at 100 µM (MCF-7 cells; Homo sapiens, 24 h) | IC50 (BHK-21 cells; Mesocricetus auratus) | other results
1 | Cc1ccc2nc(N)c3c(N)nc4n[nH]cc4c3c2c1 [5b] | 98.4% | 32.1 ± 1.14 µM | 96.4% | 126 ± 1.63 µM | IC50 (MCF-7 cells; Homo sapiens, MCF7, 24 h): 41.4 ± 0.47 µM
2 | Cc1ccc2nc(N)c3c(N)nc4n[nH]c(C)c4c3c2c1 [5i] | 63.5% | 61.9 ± 1.76 µM | 58.2% | 134 ± 1.71 µM | IC50 (MCF-7 cells; Homo sapiens, MCF7, 24 h): 54.7 ± 0.63 µM
3 | N#CC1=C(N)Nc2n[nH]cc2C12C(=O)Nc1ccc(F)cc12 (centres unmarked) [4c] | > 50% | 90.2 ± 2.18 µM | 26.8% | 49.2 ± 2.01 µM | %Inhibition at 100 µM, HeLa cell line (HeLa cells [1]): 57.80%
4 | N#CC1=C(N)Nc2n[nH]cc2C12C(=O)Nc1ccc(Cl)cc12 (centres unmarked) [4d] | – | 51.6 ± 0.99 µM | 18.9% | 246 ± 6.71 µM | %Inhibition at 100 µM, HeLa cell line (HeLa cells [1]): 99.45%
5 | Cc1[nH]nc2c1C1(C(=O)Nc3ccccc31)C(C#N)=C(N)N2 (centres unmarked) [4h] | 5.08% | – | 2.38% | – | –
6 | Cc1[nH]nc2c1C1(C(=O)Nc3ccc(Cl)cc31)C(C#N)=C(N)N2 (centres unmarked) [4k] | 3.84% | – | 11.9% | – | –
7 | OO [H2O2, Hydrogen Peroxide, reference compound] | – | – | – | – | %DNA in tail ± SD (HeLa cells [2]): 55.11 ± 0.68%; Tail length ± SD (HeLa cells [2]; H2O2 20 µM 30 min (positive control)): 84.14 ± 3.43 µM
8 | Cc1[nH]nc2nc(N)c3c(N)nc4ccc(OC(F)(F)F)cc4c3c12 [5n] | 63.2% | 32.7 ± 2.16 µM | 10.5% | 46.6 ± 1.03 µM | –
9 | N#CC1=C(N)Nc2n[nH]cc2C12C(=O)Nc1ccc(OC(F)(F)F)cc12 (centres unmarked) [4g] | 38.6% | – | 15.2% | – | –
10 | Nc1nc2ccc([N+](=O)[O-])cc2c2c1c(N)nc1n[nH]cc12 [5f] | – | 69.1 ± 0.99 µM | 9.54% | 101 ± 2.61 µM | –
11 | Cc1[nH]nc2c1C1(C(=O)Nc3ccc(Br)cc31)C(C#N)=C(N)N2 (centres unmarked) [4l] | 39.3% | – | 1.78% | – | –
12 | Cc1[nH]nc2c1C1(C(=O)Nc3ccc([N+](=O)[O-])cc31)C(C#N)=C(N)N2 (centres unmarked) [4m] | 22.7% | – | 23.3% | – | –
13 | Nc1nc2ccc(Cl)cc2c2c1c(N)nc1n[nH]cc12 [5d] | 71.4% | 40.7 ± 1.42 µM | 27.3% | 166.8 ± 0.95 µM | –
14 | Cc1[nH]nc2nc(N)c3c(N)nc4ccc(Br)cc4c3c12 [5l] | 81.6% | 38.5 ± 0.63 µM | 28.2% | 152 ± 2.61 µM | –
15 | Nc1nc2ccc(Br)cc2c2c1c(N)nc1n[nH]cc12 [5e] | 98.3% | 30.2 ± 1.15 µM | 96.8% | 84.1 ± 3.31 µM | IC50 (MCF-7 cells; Homo sapiens, MCF7, 24 h): 18.6 ± 0.29 µM
16 | N#CC1=C(N)Nc2n[nH]cc2C12C(=O)Nc1ccc([N+](=O)[O-])cc12 (centres unmarked) [4f] | 26.2% | – | 5.23% | – | –
17 | Cc1[nH]nc2c1C1(C(=O)Nc3ccc(F)cc31)C(C#N)=C(N)N2 (centres unmarked) [4j] | 5.68% | – | 2.22% | – | –
18 | Nc1nc2ccc(F)cc2c2c1c(N)nc1n[nH]cc12 [5c] | 69.2% | 10.3 ± 0.51 µM | 4.12% | 42.4 ± 1.95 µM | –
19 | Cc1[nH]nc2nc(N)c3c(N)nc4ccccc4c3c12 [5h] | 93.6% | 14.4 ± 1.21 µM | 37.8% | 31.4 ± 1.33 µM | –
20 | N#CC1=C(N)Nc2n[nH]cc2C12C(=O)Nc1ccc(Br)cc12 (centres unmarked) [4e] | 24.9% | – | 7.24% | – | –
21 | Cc1[nH]nc2nc(N)c3c(N)nc4ccc([N+](=O)[O-])cc4c3c12 [5m] | 44.9% | – | 10.3% | – | –
22 | Cc1ccc2c(c1)C1(C(=O)N2)C(C#N)=C(N)Nc2n[nH]cc21 (centres unmarked) [4b] | 45.9% | – | 1.86% | – | –
23 | Nc1nc2ccccc2c2c1c(N)nc1n[nH]cc12 [5a] | 97.9% | 58.91 ± 0.39 µM | 46.4% | 177 ± 6.11 µM | –
24 | Cc1ccc2c(c1)C1(C(=O)N2)C(C#N)=C(N)Nc2n[nH]c(C)c21 (centres unmarked) [4i] | 39.7% | – | 1.42% | – | –
25 | N.N.[Cl][Pt][Cl] [Cisplatin, reference compound] | – | – | – | – | %Inhibition at 100 µM, HeLa cell line (HeLa cells [1]): 98.63%; IC50 (HeLa cells [1]): 11.3 ± 0.78 µM; %Inhibition at 100 µM, MCF-7 cell line (MCF-7 cells; 100 µM, 24 h): 73.12%; IC50 (MCF-7 cells; 24 h): 6.22 ± 0.72 µM; IC50 (BHK-21 cells): 24.7 ± 0.37 µM
26 | Nc1nc2ccc(OC(F)(F)F)cc2c2c1c(N)nc1n[nH]cc12 [5g] | 61.3% | – | 31.4% | – | –
27 | Cc1[nH]nc2c1C1(C(=O)Nc3ccc(OC(F)(F)F)cc31)C(C#N)=C(N)N2 (centres unmarked) [4n] | 27.8% | – | 0.15% | – | –
28 | N#CC1=C(N)Nc2n[nH]cc2C12C(=O)Nc1ccccc12 (centres unmarked) [4a] | 34.5% | – | 28.2% | – | –
